We go through 1 molecule from patent US9487479B2, “Small molecule inhibitors of N-terminus activation of the androgen receptor” (The University of British Columbia, priority 2008, dated 2016).

For data set [1], the target named is T1, progesterone receptor (PR) (Homo sapiens, UniProt P06401).
T1 construct: Cells were co-transfected with expression plasmids for full-length hGR and PRβ; expressed in transfected cells; host or cells: LNCaP cells
T1 sequence (P06401 1-933): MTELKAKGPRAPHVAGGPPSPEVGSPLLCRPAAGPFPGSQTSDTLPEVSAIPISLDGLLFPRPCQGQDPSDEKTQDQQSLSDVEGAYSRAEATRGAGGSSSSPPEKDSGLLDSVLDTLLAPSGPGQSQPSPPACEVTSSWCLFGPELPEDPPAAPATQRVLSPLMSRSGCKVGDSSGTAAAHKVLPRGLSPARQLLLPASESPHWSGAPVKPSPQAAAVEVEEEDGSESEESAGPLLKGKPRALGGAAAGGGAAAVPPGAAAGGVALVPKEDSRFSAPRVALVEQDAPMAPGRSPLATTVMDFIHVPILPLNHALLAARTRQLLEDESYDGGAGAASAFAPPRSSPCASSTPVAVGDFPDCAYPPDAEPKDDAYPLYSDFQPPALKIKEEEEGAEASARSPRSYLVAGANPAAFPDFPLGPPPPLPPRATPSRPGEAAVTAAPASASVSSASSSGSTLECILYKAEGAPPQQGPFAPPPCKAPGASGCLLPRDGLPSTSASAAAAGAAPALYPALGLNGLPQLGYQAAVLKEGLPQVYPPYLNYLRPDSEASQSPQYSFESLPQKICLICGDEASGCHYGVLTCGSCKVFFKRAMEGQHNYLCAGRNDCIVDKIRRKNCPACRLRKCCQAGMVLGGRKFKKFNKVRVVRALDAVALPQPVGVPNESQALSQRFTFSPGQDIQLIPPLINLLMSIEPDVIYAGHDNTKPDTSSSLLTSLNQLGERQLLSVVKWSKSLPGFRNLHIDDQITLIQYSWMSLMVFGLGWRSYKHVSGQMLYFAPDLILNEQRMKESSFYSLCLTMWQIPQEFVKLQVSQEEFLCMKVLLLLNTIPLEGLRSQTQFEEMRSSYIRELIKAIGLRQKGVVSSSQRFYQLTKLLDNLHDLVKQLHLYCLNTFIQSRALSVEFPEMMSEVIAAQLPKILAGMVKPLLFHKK
The experiment in a line: PRE-luciferase reporter assay in LNCaP cells transfected with PRβ. As to conditions: 5 μg/ml, progesterone 10 nM, 24 h. The class given is cell-based. The source says:
White bars represent no steroid (ethanol control). Wherein glucocorticoid receptor (GR) and progesterone receptor (PR).
Sequence similarities of amino acids in the AR with related human steroid receptors (glucocorticoid receptor (GR) and progesterone receptor (PR)) are significant in some domains such as the DNA-binding-domain (DBD). Although the AR-NTD shares less than 15% homology with the PR and GR, these receptors do interact with some of the same proteins such as SRC-1 (steroid receptor coactivator-1). Therefore, reporter gene assays were used to determine if candidate compounds that block AR activity have any effect on GR and PR transcriptional activity. Cells were co-transfected with expression plasmids for full-length hGR and PRβ and the relative reporter (i.e., pGR-Luc or PRE-E1b-Luc reporters). Cells were then treated with ethanol vehicle, dexamethasone (GR), 4-pregnene-3,20 dione (progesterone) (PR) followed by measurement of luciferase activity.
In general terms: In a reporter assay the amount or activity of a reporter protein is the signal.

A further data set concerns PSA mRNA. The experiment in a line: Androgen-induced PSA mRNA levels in LNCaP cells (qRT-PCR). The class given is cell-based, human. The settings on record: 10 μg/ml, 1 hour pretreatment, R1881 1 nM, 16 hours. On the procedure: Levels of PSA mRNA were measured by quantitative real-time (qRT)-PCR and normalized to levels of GAPDH mRNA (housekeeping gene). White bar: no R1881. Black bars: R1881 (1 nM). MNE: mean normalized expression. DMSO (no R1881) was arbitrarily set at 1.0 for each individual experiment. Bars represent the mean±SE from 3 separate experiments using triplicate technical samples from each experiment.
PSA is an androgen-regulated gene containing several well-characterized androgen response elements (AREs) in the enhancer and promoter regions. Levels of PSA mRNA are induced by androgen by a mechanism dependent androgen receptor. To test if sintokamides would also block endogenous gene expression induced by androgen, levels of PSA mRNA were measured in response to the synthetic androgen R1881.
Background: Real-time PCR tracks product formation cycle by cycle.

The next data set has as its system PC3 cells. Nature of the data set: Proliferation of PC3 cells (BrdU incorporation). As to conditions: 5 μg/mL. Type of data set: cell-based, human. The text has this: LNCaP cells were employed initially for all experiments because they are well-differentiated human prostate cancer cells in which ligand-independent activation of the AR by FSK has been characterized (Nazareth et al 1996 J. Biol. Chem. 271, 19900-19907; and Sadar 1999 J. Biol. Chem. 274, 7777-7783). LNCaP cells express endogenous AR and secrete prostate-specific antigen (PSA) (Horoszewicz et al 1983 Cancer Res. 43, 1809-1818). LNCaP cells can be grown either as monolayers in cell culture or as tumors in the well-characterized xenograft model that progresses to androgen independence in castrated hosts (Sato et al 1996 J. Steroid Biochem. Mol. Biol. 58, 139-146; Gleave et al 1991 Cancer Res. 51, 3753-3761; Sato et al 1997 Cancer Res. 57, 1584-1589; and Sadar et al 2002 Mol. Cancer Ther. 1(8), 629-637). […] Small molecules that specifically target the AR-NTD should have no effect on PC3 cells. This means that they should not alter the proliferation of PC3 cells if they specifically block the AR to mediate their inhibitory effects. R1881 was employed since it is stable and avoids problems associated with the labile physiological ligand dihydrotestosterone (DHT). Reporter specificity may be determined using several alternative reporter gene constructs. […]
BrdU incorporation was measured 3 days later to indicate changes in proliferation in response to androgen (see FIG. 3B).
(In general: Dividing cells build labelled thymidine or BrdU into new DNA.)

Another data set has as its system LNCaP cells. The experiment in a line: Cytotoxicity: cell morphology of treated LNCaP cells. The settings on record: LNCaP cells treated for 48 h, 10 μM. The class given is cell-based, human. The text has this: From this extract, the pure active compound, Sintokamide A (CB3.1) was isolated and to ensure that the inhibitory effect of CB3.1 was not due to generally cytotoxicity, cell morphology of LNCaP cells was examined. […] Cells treated with R1881 are also shown to provide an indication of cell number and for comparison.

`CCC(=O)N[C@H](C[C@H](C)C(Cl)(Cl)Cl)C(=O)N1C(=O)C=C(OC)[C@@H]1C[C@H](C)C(Cl)Cl` [CB3.1, Sintokamide A]: in data set [1], the “PRE-luciferase activity in response to ligand” value is “did not inhibit”. The “inhibition of androgen-induced levels of PSA mRNA” value in the data set with PSA mRNA was “inhibit”. Moreover, the “proliferation of PC3 cells (BrdU incorporation)” value with PC3 cells is given as “did not block proliferation”. Besides, in the data set on LNCaP cells, the “signs of toxicity (cell morphology)” value is recorded as “no obvious signs of toxicity”.
